Measurements taken from ChEMBL document CHEMBL1153975, “Structure-activity relationships of diverse annonaceous acetogenins against human tumor cells” (Bioorg Med Chem Lett, 2009).
pIC50: −log10 of the molar value.

Columns and labels:
Type in all cases: functional, cell-based
[1] = Cytotoxicity against human A-5408 cells after 72 hrs by MTT assay
SGC-7901 = test: Cytotoxicity against human SGC7901 cells after 72 hrs by MTT assay; conditions: SGC-7901, 72 h
HeLa = test: Cytotoxicity against human HeLa cells after 72 hrs by MTT assay
[2] = Cytotoxicity against human SMMC-7541 cells after 72 hrs by MTT assay
MCF7 = test: Cytotoxicity against human MCF7 cells after 72 hrs by MTT assay; conditions: MCF7, 72 h

Q: With `CCCCCCCCCCCC[C@@H](O)[C@H]1CC[C@H]([C@H](O)CCCCCC(O)CCCCCCC2=C[C@H](C)OC2=O)O1` (some centres undefined) as the compound, how does the pIC50 [1] read?
A: 6.49

Q: And the pIC50 (SGC-7901)?
A: 6.64

Q: What about the pIC50 (HeLa) of the same compound?
A: 6.00

Q: What about the pIC50 [2] of the same compound?
A: 8.08

Q: What about the pIC50 (MCF7) of the same compound?
A: 7.43

Q: With `CCCCCC[C@@H](O)CCC[C@H](O)[C@@H]1CC[C@@H]([C@H](O)CC[C@@H](O)[C@@H]2CC[C@H](CCCCCCCCCC3=C[C@@H](C)OC3=O)O2)O1` as the compound, how does the pIC50 [1] read?
A: 7.80

Q: What about the pIC50 (SGC-7901) of the same compound?
A: 7.03

Q: And the pIC50 (HeLa)?
A: 8.89

Q: What about the pIC50 [2] of the same compound?
A: 7.22

Q: What about the pIC50 (MCF7) of the same compound?
A: 8.48

Q: With `CCCCCCCCCCC(O)C1CCC(C2CCC(C(O)CCCCCCCC[C@H](O)CC3=C[C@@H](C)OC3=O)O2)O1` (some centres undefined) [ASIMICIN] as the compound, how does the pIC50 [1] read?
A: 8.44

Q: And the pIC50 (SGC-7901)?
A: 8.37

Q: What about the pIC50 (HeLa) of the same compound?
A: 7.57

Q: What about the pIC50 [2] of the same compound?
A: 7.96

Q: And the pIC50 (MCF7)?
A: 7.89

Q: Which results are given for `CCCCCCCCCC[C@@H](O)[C@H]1CC[C@H]([C@H]2CC[C@H]([C@H](O)CCCCCCCCCCCCC3=C[C@@H](C)OC3=O)O2)O1` [DEACETYLUVARICIN]?
A: pIC50 [1]: 6.40; pIC50 (SGC-7901): 7.37; pIC50 (HeLa): 6.80; pIC50 [2]: 6.85; pIC50 (MCF7): 7.40

Q: What does the source list for `COc1cccc2c1C(=O)c1c(O)c3c(c(O)c1C2=O)C[C@@](O)(C(=O)CO)C[C@@H]3O[C@H]1C[C@H](N)[C@H](O)[C@H](C)O1` [DOXORUBICIN]?
A: pIC50 [1]: 7.59; pIC50 (SGC-7901): 7.89; pIC50 (HeLa): 7.80; pIC50 [2]: 8.43

Q: With `CCCCCCCCCC[C@H](O)[C@H]1CC[C@H]([C@H]2CC[C@H]([C@H](O)CCCCCCCCCCCCC3=C[C@@H](C)OC3=O)O2)O1` [ISODESACETYLUVARICIN] as the compound, how does the pIC50 [1] read?
A: 6.80

Q: What about the pIC50 (SGC-7901) of the same compound?
A: 7.08

Q: And the pIC50 (HeLa)?
A: 7.89

Q: What about the pIC50 [2] of the same compound?
A: 7.80

Q: And the pIC50 (MCF7)?
A: 7.68

Q: With `CCCCCC[C@H](O)CCC[C@H](O)[C@H]1CC[C@H]([C@H]2CC[C@H]([C@H](O)CCCCCCCCCCCCC3=C[C@H](C)OC3=O)O2)O1` [SQUAMOCIN] as the compound, how does the pIC50 [1] read?
A: 9.06

Q: What about the pIC50 (SGC-7901) of the same compound?
A: 9.14

Q: And the pIC50 (HeLa)?
A: 8.01

Q: What about the pIC50 [2] of the same compound?
A: 10.05

Q: What about the pIC50 (MCF7) of the same compound?
A: 9.30

Q: With `CCCCCC[C@@H](O)CCC[C@@H](O)[C@H]1CC[C@H]([C@H]2CC[C@H]([C@H](O)CCCCCCCCCCCCC3=C[C@@H](C)OC3=O)O2)O1` [Squamocin-D] as the compound, how does the pIC50 [1] read?
A: 8.74

Q: And the pIC50 (SGC-7901)?
A: 8.80

Q: What about the pIC50 (HeLa) of the same compound?
A: 7.62

Q: What about the pIC50 [2] of the same compound?
A: 7.92

Q: And the pIC50 (MCF7)?
A: 8.55

Q: With `CCCCCC[C@@H](O)CCC[C@H](O)[C@@H]1CC[C@@H]([C@H](O)CC[C@@H](O)[C@@H]2CC[C@@H](CCCCCCCCCC3=C[C@@H](C)OC3=O)O2)O1` [Squamostatin-A] as the compound, how does the pIC50 [1] read?
A: 8.59

Q: And the pIC50 (SGC-7901)?
A: 7.01

Q: And the pIC50 (HeLa)?
A: 7.48

Q: What about the pIC50 [2] of the same compound?
A: 7.30

Q: And the pIC50 (MCF7)?
A: 6.01

Q: With `CCCCCC[C@@H](O)CCC[C@@H](O)[C@@H]1CC[C@@H]([C@H](O)CC[C@@H](O)[C@@H]2CC[C@@H](CCCCCCCCCC3=C[C@@H](C)OC3=O)O2)O1` [Squamostatin-B] as the compound, how does the pIC50 [1] read?
A: 7.37

Q: What about the pIC50 (SGC-7901) of the same compound?
A: 6.77

Q: And the pIC50 (HeLa)?
A: 6.42

Q: What about the pIC50 [2] of the same compound?
A: 6.77

Q: What about the pIC50 (MCF7) of the same compound?
A: 6.14

Q: With `CCCCCCCCCC[C@H](O)[C@@H]1CC[C@@H]([C@H](O)CC[C@@H](O)[C@@H]2CC[C@@H](CCCCCCCCCC3=C[C@@H](C)OC3=O)O2)O1` [Squamostatin-D] as the compound, how does the pIC50 [1] read?
A: 8.85

Q: What about the pIC50 (SGC-7901) of the same compound?
A: 6.74

Q: What about the pIC50 (HeLa) of the same compound?
A: 7.42

Q: And the pIC50 [2]?
A: 7.27

Q: And the pIC50 (MCF7)?
A: 7.35

Q: With `CCCCCCCCCC[C@@H](O)[C@@H]1CC[C@@H]([C@H](O)CC[C@@H](O)[C@@H]2CC[C@@H](CCCCCCCCCC3=C[C@@H](C)OC3=O)O2)O1` [Squamostatin-E] as the compound, how does the pIC50 [1] read?
A: 6.89

Q: What about the pIC50 (SGC-7901) of the same compound?
A: 6.68

Q: And the pIC50 (HeLa)?
A: 6.57

Q: What about the pIC50 [2] of the same compound?
A: 6.74

Q: What about the pIC50 (MCF7) of the same compound?
A: 6.05
